Earlier results, collected in patent US9511011B2, “TRPV1 inhibitory peptides and composition for skin-aging protection or wrinkle improvement comprising the same” (SNU R&DB FOUNDATION, priority 2012, dated 2016).

Biological target: T1, TRPV1 (Homo sapiens, UniProt Q8NER1)
T1 construct: Capsaicin stimulus increases intracellular Ca^2+ level in keratinocytes, which is suppressed by capsazepine; host or cells: keratinocytes (endogenous TRPV1)
Conditions: keratinocytes

T1 sequence (Q8NER1 whole entry): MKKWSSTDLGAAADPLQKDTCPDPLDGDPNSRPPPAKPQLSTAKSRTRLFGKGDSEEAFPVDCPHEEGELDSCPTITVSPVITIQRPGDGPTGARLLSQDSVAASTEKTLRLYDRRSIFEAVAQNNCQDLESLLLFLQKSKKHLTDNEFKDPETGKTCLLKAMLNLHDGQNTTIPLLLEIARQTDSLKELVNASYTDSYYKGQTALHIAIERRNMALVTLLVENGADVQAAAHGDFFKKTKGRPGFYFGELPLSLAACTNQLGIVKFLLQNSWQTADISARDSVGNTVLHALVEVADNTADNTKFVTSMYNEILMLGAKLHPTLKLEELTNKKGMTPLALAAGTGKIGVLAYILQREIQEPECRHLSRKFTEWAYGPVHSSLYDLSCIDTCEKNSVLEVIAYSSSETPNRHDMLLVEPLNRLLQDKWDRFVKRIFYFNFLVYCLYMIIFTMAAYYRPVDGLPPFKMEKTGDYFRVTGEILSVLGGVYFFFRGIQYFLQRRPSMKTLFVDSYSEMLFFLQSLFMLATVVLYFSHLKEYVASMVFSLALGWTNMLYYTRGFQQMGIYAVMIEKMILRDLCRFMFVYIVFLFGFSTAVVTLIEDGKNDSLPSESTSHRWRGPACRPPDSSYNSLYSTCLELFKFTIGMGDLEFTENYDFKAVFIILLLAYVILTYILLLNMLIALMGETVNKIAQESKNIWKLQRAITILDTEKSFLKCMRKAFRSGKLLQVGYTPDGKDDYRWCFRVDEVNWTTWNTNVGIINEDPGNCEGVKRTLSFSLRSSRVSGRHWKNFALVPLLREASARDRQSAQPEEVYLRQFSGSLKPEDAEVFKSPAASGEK

In the case of Oc1cc2c(cc1O)CN(C(=S)NCCc1ccc(Cl)cc1)CCC2 [capsazepine], the “intracellular Ca2+ level increased by capsaicin stimulus” value is given as “suppressed”.
